Measured values reported in ChEMBL document CHEMBL1201862, “PubChem BioAssay data set” (2004).
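Five compound concentrations were applied to cells in 96-well plates for 48 hours; endpoints were derived by simple linear interpolation of the resulting dose-response curve. The concentration for 50% growth inhibition is given as GI50.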 Activity calls are given as the source filed them. No stated cut-off is given here; in the data, active = GI50 up to about 1.1 µM and inactive = higher.

Assays:
Assay in all cases: inhibition of tumour cell growth, NCI panel, 48 h
SK-MEL-2 = tested on: SK-MEL-2
MDA-MB-231 = tested on: MDA-MB-231
SNB-19 = tested on: SNB-19
SW-620 = tested on: SW-620
DLD-1 = tested on: DLD-1
OVCAR-3 = tested on: OVCAR-3
MOLT-4 = tested on: MOLT-4
SF-295 = tested on: SF-295
NCI-H226 = tested on: NCI-H226
ACHN = tested on: ACHN
NCI-H23 = tested on: NCI-H23
HOP-62 = tested on: HOP-62
CCRF-CEM = tested on: CCRF-CEM
UACC-257 = tested on: UACC-257
A549 = tested on: A549
MDA-N = tested on: MDA-N
KM12 = tested on: KM12
CAKI-1 = tested on: CAKI-1
K562 = tested on: K562
NCI/ADR-RES = tested on: NCI/ADR-RES

| SMILES | GI50 (SK-MEL-2) | GI50 (MDA-MB-231) | GI50 (SNB-19) | GI50 (SW-620) | GI50 (DLD-1) | GI50 (OVCAR-3) | GI50 (MOLT-4) | GI50 (SF-295) | GI50 (NCI-H226) | GI50 (ACHN) | GI50 (NCI-H23) | GI50 (HOP-62) | GI50 (CCRF-CEM) | GI50 (UACC-257) | GI50 (A549) | GI50 (MDA-N) | GI50 (KM12) | GI50 (CAKI-1) | GI50 (K562) | GI50 (NCI/ADR-RES) |
| --- | --- | --- | --- | --- | --- | --- | --- | --- | --- | --- | --- | --- | --- | --- | --- | --- | --- | --- | --- | --- |
| O=C(CC1(O)C(=O)Nc2c(Cl)cc(Cl)cc21)c1ccc(Br)cc1Br (centres undefined) | 15200 nM (inactive) | 14700 nM (inactive) | 17200 nM (inactive) | 3300 nM (inactive) | 5480 nM (inactive) | 18700 nM (inactive) | 1320 nM (inactive) | 20000 nM (inactive) | 19000 nM (inactive) | 14100 nM (inactive) | 8260 nM (inactive) | 20800 nM (inactive) | 474 nM (active) | 10700 nM (inactive) | 22200 nM (inactive) | 7570 nM (inactive) | 12900 nM (inactive) | 4240 nM (inactive) | 946 nM (active) |  |
| CCOC(=O)Nc1cc2c(c(N)n1)N=C(c1ccccc1)[C@H](C)N2 [MIVOBULIN ISETHIONATE] | < 0.1 nM (active) | < 0.1 nM (active) | < 0.1 nM (active) | < 0.1 nM (active) | < 0.1 nM (active) | 0.468 nM (active) | < 0.1 nM (active) | < 0.1 nM (active) | 2.15 nM (active) | < 0.1 nM (active) | 1.61 nM (active) | 56.2 nM (active) | < 0.1 nM (active) | 2.15 nM (active) | < 0.1 nM (active) | < 0.1 nM (active) | < 0.1 nM (active) | < 0.1 nM (active) | < 0.1 nM (active) | < 0.1 nM (active) |
